This note sets out measurements from ChEMBL document CHEMBL1944599, “From libraries to candidate: the discovery of new ultra long-acting dibasic β₂-adrenoceptor agonists” (Bioorg Med Chem Lett, 2012).

The term IC50 denotes the concentration at which inhibition is half-maximal. What is called EC50 is the concentration giving half of the maximal effect. As usually defined, the logD is the decadic logarithm of the distribution of all forms, ionised or not, between an organic phase and buffer at a given pH. The low end stands for a more hydrophilic compound, the high end for a more lipophilic compound.

Molecules are shown by their SMILES. Bounds are passed on as bounds.

Data set [1] deals with Beta-1 adrenergic receptor (Homo sapiens, UniProt P08588). Description: Displacement of radiolabeled iodocyanopindolol from beta1 adrenoceptor.
Sequence of Beta-1 adrenergic receptor (P08588 whole entry): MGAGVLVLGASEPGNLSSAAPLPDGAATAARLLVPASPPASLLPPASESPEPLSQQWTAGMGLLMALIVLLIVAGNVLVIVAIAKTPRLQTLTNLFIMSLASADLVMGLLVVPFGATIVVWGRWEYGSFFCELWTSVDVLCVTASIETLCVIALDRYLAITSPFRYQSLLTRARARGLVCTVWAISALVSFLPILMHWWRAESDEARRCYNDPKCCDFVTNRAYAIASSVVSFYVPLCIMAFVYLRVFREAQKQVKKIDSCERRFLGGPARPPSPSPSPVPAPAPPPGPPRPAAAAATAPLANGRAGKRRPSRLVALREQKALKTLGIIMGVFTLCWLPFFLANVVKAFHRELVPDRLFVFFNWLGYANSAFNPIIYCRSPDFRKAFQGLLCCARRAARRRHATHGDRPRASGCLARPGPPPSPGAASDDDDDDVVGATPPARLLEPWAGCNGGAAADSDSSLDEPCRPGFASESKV
The target of data set [2] is T1, Alpha-1D adrenergic receptor (Homo sapiens, UniProt P25100).
T1 sequence (P25100 whole entry): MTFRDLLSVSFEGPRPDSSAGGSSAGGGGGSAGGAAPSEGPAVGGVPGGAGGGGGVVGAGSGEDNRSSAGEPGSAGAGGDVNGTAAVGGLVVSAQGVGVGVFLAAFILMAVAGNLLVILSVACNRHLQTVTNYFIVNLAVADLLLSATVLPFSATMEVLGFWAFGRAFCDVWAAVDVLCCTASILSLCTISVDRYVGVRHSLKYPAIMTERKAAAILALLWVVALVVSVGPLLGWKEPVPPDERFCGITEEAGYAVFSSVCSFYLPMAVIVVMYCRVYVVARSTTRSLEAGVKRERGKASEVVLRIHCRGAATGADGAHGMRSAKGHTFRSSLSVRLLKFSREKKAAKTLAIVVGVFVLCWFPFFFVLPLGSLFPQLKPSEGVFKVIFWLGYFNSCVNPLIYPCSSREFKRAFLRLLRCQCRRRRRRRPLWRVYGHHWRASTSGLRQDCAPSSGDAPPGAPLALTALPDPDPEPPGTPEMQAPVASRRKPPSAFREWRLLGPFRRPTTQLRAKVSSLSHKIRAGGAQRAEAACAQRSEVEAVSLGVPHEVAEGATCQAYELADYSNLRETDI
Briefly: Displacement of radiolabeled Prazosin from alpha1D adrenoceptor.

The next data set concerns the target D(2) dopamine receptor (Homo sapiens, UniProt P14416). Description: Displacement of radiolabeled spiperone from dopamine D2 receptor.
Data set [3] concerns the target T2, Beta-2 adrenergic receptor (Homo sapiens, UniProt P07550). Briefly: Displacement of radiolabeled iodocyanopindolol from recombinant beta2 adrenoceptor.
Data set [4] concerns the target T2, Beta-2 adrenergic receptor. Briefly: Agonist activity at human beta2 adrenoceptor expressed in H292 cells assessed as increase in cAMP accumulation after 60 mins by spectrophotometry. Format: functional, cell-based.
A short description of the next data set: physchem. The note with it: 1-octanol/aqueous buffer, pH 7.4.

Sequence of D(2) dopamine receptor (P14416 whole entry): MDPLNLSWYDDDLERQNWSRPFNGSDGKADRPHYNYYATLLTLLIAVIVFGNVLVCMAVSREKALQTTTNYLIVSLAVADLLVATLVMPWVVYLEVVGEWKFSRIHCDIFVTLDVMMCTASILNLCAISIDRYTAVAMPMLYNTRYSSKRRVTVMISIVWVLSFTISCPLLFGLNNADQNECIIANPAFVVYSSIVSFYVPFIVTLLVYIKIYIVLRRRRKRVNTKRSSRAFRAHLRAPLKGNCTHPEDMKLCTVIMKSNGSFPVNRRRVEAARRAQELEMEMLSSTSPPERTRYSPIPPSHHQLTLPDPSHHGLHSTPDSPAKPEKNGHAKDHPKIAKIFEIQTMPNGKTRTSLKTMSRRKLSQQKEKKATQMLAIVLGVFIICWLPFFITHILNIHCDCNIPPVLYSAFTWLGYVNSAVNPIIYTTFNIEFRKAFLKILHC
T2 sequence (P07550 whole entry): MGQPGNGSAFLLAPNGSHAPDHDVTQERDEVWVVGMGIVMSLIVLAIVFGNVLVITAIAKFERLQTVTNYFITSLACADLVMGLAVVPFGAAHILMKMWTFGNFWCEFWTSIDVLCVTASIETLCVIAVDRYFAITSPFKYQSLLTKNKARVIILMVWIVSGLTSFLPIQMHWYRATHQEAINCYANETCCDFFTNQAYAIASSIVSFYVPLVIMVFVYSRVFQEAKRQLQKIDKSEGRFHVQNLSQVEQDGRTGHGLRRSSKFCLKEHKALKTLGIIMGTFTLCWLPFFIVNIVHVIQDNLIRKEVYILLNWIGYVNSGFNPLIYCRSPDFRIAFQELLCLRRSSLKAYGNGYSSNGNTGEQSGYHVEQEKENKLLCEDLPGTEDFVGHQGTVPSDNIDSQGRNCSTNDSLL

`O=c1[nH]c2c(O)ccc([C@@H](O)CNCCc3cccc(CNCc4ccccn4)c3)c2s1`: the IC50 in data set [1] was 79.4 nM; in data set [2], 316 nM; on D(2) dopamine receptor, 5010 nM.
`O=c1[nH]c2c(O)ccc(CCNCCc3cccc(CNCCc4c(Cl)cccc4Cl)c3)c2s1`: the IC50 in data set [3] is 0.631 nM.
Turning to `COc1cccc(CNCc2cccc(CCNC[C@H](O)c3ccc(O)c4[nH]c(=O)sc34)c2)c1`, the EC50 in data set [4] is 1 nM. In addition, the IC50 in data set [3] is 6.31 nM; in data set [1], 63.1 nM; in data set [2], 100 nM; at D(2) dopamine receptor, 794 nM. This compound showed a logD in “physchem” of 0.9.
As to `O=c1[nH]c2c(O)ccc([C@@H](O)CNCCc3ccc(CNCCc4ccccn4)cc3)c2s1`, the IC50 in data set [1] was greater than 794 nM; in data set [2], 25.1 nM; at D(2) dopamine receptor, 2510 nM. In the data set “physchem”, this compound had a pH-dependent lipophilicity (logD) of -0.3.
Turning to `CCOc1ccccc1CNCc1cccc(CCNC[C@H](O)c2ccc(O)c3[nH]c(=O)sc23)c1`, the EC50 in data set [4] was 3.16 nM. The IC50 in data set [3] was 25.1 nM; in data set [1], 100 nM; in data set [2], 31.6 nM; at D(2) dopamine receptor it was 1260 nM.
As for `O=c1[nH]c2c(O)ccc([C@@H](O)CNCCc3cccc(CNCc4ccccc4F)c3)c2s1`, in data set [4], the EC50 was 0.631 nM. Also, the IC50 in data set [3] was 1 nM; in data set [1] it was 6.31 nM; in data set [2], 79.4 nM; on D(2) dopamine receptor it was 631 nM. In “physchem”, this compound yielded a logD of 0.7.
As for `COc1ccccc1CCNCc1ccc(CCNCCc2ccc(O)c3[nH]c(=O)sc23)cc1`, in data set [3], the IC50 is 200 nM.
With `O=c1[nH]c2c(O)ccc([C@@H](O)CNCCc3cccc(CNCCc4ccccc4Cl)c3)c2s1`, the concentration giving a half-maximal response (EC50) in data set [4] was 0.251 nM. Moreover, the IC50 in data set [3] was 0.631 nM; in data set [1] it was 158 nM; in data set [2] it was 50.1 nM; at D(2) dopamine receptor, 631 nM. Further, in the data set “physchem”, the logD was determined as 1.6.
Turning to `O=c1[nH]c2c(O)ccc(CCNCCc3cccc(CN4CCC(c5ccccc5)CC4)c3)c2s1`, the IC50 in data set [3] was 31.6 nM.
Regarding `O=c1[nH]c2c(O)ccc(CCNCCc3cccc(CN[C@H]4C[C@@H]4c4ccccc4)c3)c2s1`, the EC50 in data set [4] is 3.98 nM. Further, in data set [3], the IC50 was 12.6 nM.
`COc1ccccc1CN(C)Cc1cccc(CCNC[C@H](O)c2ccc(O)c3[nH]c(=O)sc23)c1`: the EC50 in data set [4] was 3.16 nM. In addition, the IC50 in data set [3] is 25.1 nM; in data set [1], 200 nM; in data set [2], 251 nM; at D(2) dopamine receptor, 1000 nM. This compound registered a logD in “physchem” of 1.5.
Consider `O=c1[nH]c2c(O)ccc(CCNCCc3ccc(CNCCc4c(Cl)cccc4Cl)cc3)c2s1`, for which the EC50 in data set [4] was 100 nM. The 50% inhibitory concentration (IC50) in data set [3] was 501 nM.
For the compound `O=c1[nH]c2c(O)ccc([C@@H](O)CNCCc3ccccc3CNCCc3ccccc3F)c2s1`, the EC50 in data set [4] was 1.58 nM. Further, the IC50 was 12.6 nM in data set [3], 2 nM in data set [1], 200 nM in data set [2] and 794 nM on D(2) dopamine receptor. In “physchem”, the logD is 1.6.
Turning to `O=c1[nH]c2c(O)ccc([C@@H](O)CNCCc3cccc(CNCCCc4ccccc4)c3)c2s1`, the EC50 in data set [4] is 0.501 nM. Moreover, the IC50 in data set [3] was 0.794 nM; in data set [1] it was 20 nM; in data set [2], 158 nM; on D(2) dopamine receptor it was 316 nM. The compound also displayed a logD in “physchem” of 1.1.
In the case of `O=c1[nH]c2c(O)ccc(CCNCCc3ccc(-c4cccc(CN5Cc6ccccc6C5)c4)cc3)c2s1`, the IC50 in data set [3] was 15.8 nM.
Consider `O=c1[nH]c2c(O)ccc([C@@H](O)CNCCc3ccc(CN4CCCC4)cc3)c2s1`, for which the half-maximal effective concentration (EC50) in data set [4] is 39.8 nM.
For the compound `OCc1cc([C@@H](O)CNCCc2ccc(CNCCc3ccccc3)cc2)ccc1O`, in data set [4], the EC50 is 31.6 nM. Also, the IC50 in data set [3] is 631 nM; in data set [1], greater than 3160 nM; in data set [2] it was 501 nM; at D(2) dopamine receptor, greater than 7940 nM.
As for `COc1ccccc1CNCc1ccc(CCNC[C@H](O)c2ccc(O)c3[nH]c(=O)sc23)cc1`, the EC50 in data set [4] was 3.16 nM. For the same compound, the IC50 in data set [3] is 126 nM; in data set [1], 1260 nM; in data set [2], 100 nM; at D(2) dopamine receptor it was 2510 nM. In addition, in “physchem”, the logD turned out to be 0.2.
Turning to `O=c1[nH]c2c(O)ccc([C@@H](O)CNCCOc3cccc(CNCCc4ccccc4F)c3)c2s1`, the concentration for a half-maximal effect (EC50) in data set [4] is 2.51 nM. For the same compound, the concentration for half-maximal inhibition (IC50) in data set [3] is 7.94 nM; in data set [1] it was 200 nM; in data set [2], 25.1 nM; on D(2) dopamine receptor, 398 nM. This compound showed a logD in “physchem” of 1.9.
In the case of `O=c1[nH]c2c(O)ccc([C@@H](O)CNCCc3ccc(CNCCc4ccccc4F)cc3)c2s1`, the EC50 in data set [4] was 0.398 nM. The IC50 was 2 nM in data set [3], 398 nM in data set [1], 50.1 nM in data set [2] and 2000 nM on D(2) dopamine receptor. The same compound showed a logD in “physchem” of 1.3.
For the compound `O=c1[nH]c2c(O)ccc([C@@H](O)CNCCc3ccc(CNCCc4ccccc4)cc3)c2s1`, the EC50 in data set [4] is 0.251 nM. The IC50 in data set [3] was 2 nM; in data set [1] it was 398 nM; in data set [2], 12.6 nM; at D(2) dopamine receptor, 2000 nM. The compound further registered a logD in the data set “physchem” of 1.1.
Turning to `Cc1cccc2c(CCNCc3cccc(CCNC[C@H](O)c4ccc(O)c5[nH]c(=O)sc45)c3)c[nH]c12`, the EC50 in data set [4] was 0.316 nM. For the same compound, the IC50 was 0.631 nM in data set [3], 79.4 nM in data set [1], 398 nM in data set [2] and 398 nM at D(2) dopamine receptor. Further, the pH-dependent lipophilicity (logD) in “physchem” is 1.1.
In the case of `O=c1[nH]c2c(O)ccc([C@@H](O)CNCCc3cccc(CN4CCC(c5ccccc5)CC4)c3)c2s1`, in data set [4], the EC50 is 1 nM. For the same compound, in data set [3], the IC50 is 3.98 nM.
Turning to `O=c1[nH]c2c(O)ccc([C@@H](O)CNCCc3ccc(-c4cccc(CN5Cc6ccccc6C5)c4)cc3)c2s1`, the EC50 in data set [4] is 10 nM. In addition, the IC50 in data set [3] is 63.1 nM.
As to `C[C@@H](NCc1ccccc1-c1ccc(CCNC[C@H](O)c2ccc(O)c3[nH]c(=O)sc23)cc1)c1ccccc1`, in data set [4], the EC50 was 3.98 nM. Further, the IC50 in data set [3] is 2 nM.
In the case of `COc1ccc(CNCc2cccc(CCNC[C@H](O)c3ccc(O)c4[nH]c(=O)sc34)c2)cc1`, the EC50 in data set [4] was 0.794 nM. The IC50 in data set [3] is 5.01 nM; in data set [1], 10 nM; in data set [2], 158 nM; at D(2) dopamine receptor, 794 nM. In “physchem”, this compound yielded a logD of 0.9.
For the compound `CC(Cc1cccc(CNCCc2c(Cl)cccc2Cl)c1)NC[C@H](O)c1ccc(O)c2[nH]c(=O)sc12` (some centres undefined), the figures for the IC50 (in data set [1]; in data set [2]; at D(2) dopamine receptor) were 20 nM, 39.8 nM and 126 nM, respectively. The compound also yielded a logD in “physchem” of 2.4.
`COc1ccccc1CNCCc1cccc(CCNC[C@H](O)c2ccc(O)c3[nH]c(=O)sc23)c1`: the IC50 in data set [1] was 63.1 nM; in data set [2] it was 25.1 nM; on D(2) dopamine receptor, 1000 nM. In the data set “physchem”, this compound returned a logD of 0.9.
In the case of `O=c1[nH]c2c(O)ccc(CCNCCc3ccc(CNCCc4ccccc4F)cc3)c2s1`, the EC50 in data set [4] was 79.4 nM. Also, the IC50 in data set [3] is 1260 nM.
As for `CCN(Cc1ccncc1)Cc1cccc(-c2ccc(CCNCCc3ccc(O)c4[nH]c(=O)sc34)cc2)c1`, the EC50 in data set [4] is 316 nM. Moreover, the IC50 in data set [3] is 794 nM.
In the case of `O=c1[nH]c2c(O)ccc(CCNCCc3ccc(CNCCc4ccccn4)cc3)c2s1`, in data set [4], the EC50 was 158 nM. In data set [3], the IC50 was 100 nM.
`O=c1[nH]c2c(O)ccc([C@@H](O)CNCCCc3cccc(CNCCc4c(Cl)cccc4Cl)c3)c2s1`: the EC50 in data set [4] is 1.26 nM. Besides, the IC50 was 6.31 nM in data set [3], 7.94 nM in data set [1], 39.8 nM in data set [2] and 79.4 nM at D(2) dopamine receptor.
Turning to `O=c1ccc2c([C@@H](O)CNCCc3cccc(CNCCc4ccccn4)c3)ccc(O)c2[nH]1`, the EC50 in data set [4] is 2.51 nM. For the same compound, the IC50 was 63.1 nM in data set [3], 3160 nM in data set [1], 398 nM in data set [2] and greater than 10000 nM at D(2) dopamine receptor.
Turning to `O=c1[nH]c2c(O)ccc([C@@H](O)CNCCc3cccc(CNCCCc4ccccn4)c3)c2s1`, the EC50 in data set [4] was 1 nM. Moreover, the IC50 in data set [3] was 0.501 nM; in data set [1], 63.1 nM; in data set [2], 251 nM; on D(2) dopamine receptor it was greater than 2510 nM.
In the case of `COc1ccccc1CNCc1ccc(CCNC[C@@H](O)c2ccc(O)c3[nH]c(=O)sc23)cc1`, the EC50 in data set [4] was 7.94 nM. The IC50 was 251 nM in data set [3], 1260 nM in data set [1], 79.4 nM in data set [2] and 2000 nM at D(2) dopamine receptor.
`O=c1[nH]c2c(O)ccc(CCNCCc3ccc(CN4CC[C@@H](Oc5ccc(Cl)cc5)C4)cc3)c2s1`: in data set [4], the EC50 is 158 nM. For the same compound, in data set [3], the IC50 was 126 nM.
Take `COc1ccccc1CCNCc1ccc(CCNC[C@H](O)c2ccc(O)c3[nH]c(=O)sc23)cc1`: the EC50 in data set [4] was 0.316 nM. Besides, the IC50 is 2 nM in data set [3], 316 nM in data set [1], 7.94 nM in data set [2] and 631 nM at D(2) dopamine receptor.
On to `O=c1[nH]c2c(O)ccc([C@@H](O)CNCCc3cccc(CNCc4ccccc4Cl)c3)c2s1`, for which the results for the IC50 (in data set [1]; in data set [2]; at D(2) dopamine receptor) were 10 nM, 158 nM and 251 nM, respectively. In the data set “physchem”, the log distribution coefficient (logD) is 1.9.
